The IC50 is the midpoint of a concentration-inhibition curve.

Where only a bound is given, the exact number is not on record here.

In one series the test system is A375 cells. Briefly: Apoptosis assay by flow cytometry. As to conditions: 48 h. (In general: A flow cytometer gives signals particle by particle.)
The test system of a further series is COLO 205 cells. Kind of series: Apoptosis assay by flow cytometry. The conditions noted are these: 48 h, control 21.9%.
For a further series, the system named is A375. Kind of series: Cell proliferation assay (MTT/MTS). The conditions noted are these: Homo sapiens, A-375, read-out: IC50 ± SEM.
The next series has as its system COLO 205. Briefly: Cell proliferation assay (MTT/MTS). As to conditions: Homo sapiens, COLO 205, read-out: IC50 ± SEM.
The subject of a further series is Colo-829. Kind of series: Cell proliferation assay (MTT/MTS). The conditions noted are these: Homo sapiens, COLO-829, read-out: IC50 ± SEM.
In the next series the test system is HT-29. Kind of series: Cell proliferation assay (MTT/MTS). As to conditions: Homo sapiens, HT-29, read-out: IC50 ± SEM.
The test system of another series is Calu-6. Briefly: Cell proliferation assay (MTT/MTS). The conditions noted are these: Homo sapiens, Calu-6, read-out: IC50 ± SEM.
The next series has as its system A549. Kind of series: Cell proliferation assay (MTT/MTS). As to conditions: Homo sapiens, A549, read-out: IC50 ± SEM.
Another series has as its system HL-60. Kind of series: Cell proliferation assay (MTT/MTS). As to conditions: Homo sapiens, HL-60, read-out: IC50 ± SEM.
The test system of the next series is H1975. Kind of series: Cell proliferation assay (MTT/MTS). As to conditions: Homo sapiens, NCI-H1975, read-out: IC50 ± SEM.
The subject of a further series is MRC-5. Kind of series: Cell proliferation assay (MTT/MTS). The conditions noted are these: Homo sapiens, MRC5, read-out: IC50 ± SEM.
The subject of the next series is hERG channel. More on the design: method as in Food and Drug Administration, 2015. As to conditions: ref Food and Drug Administration, 2015; cited from earlier work.
The conditions of series [1]: cited from earlier work.
Details of series [2]: method as in Infante et al., 2012. The conditions noted are these: requires DMSO as co-solvate; ref Infante et al., 2012; cited from earlier work.
A further series concerns the target MEK1/MAP2K1(h) (Homo sapiens, UniProt Q02750). Briefly: MEK1 inhibition, comparison of tunlametinib and MEK162 (Caliper EZ Reader).
Another series addresses MEK1 kinase. More on the design: method as in Iverson et al., 2009. The conditions noted are these: ref Iverson et al., 2009; cited from earlier work.
A further series concerns the target MEK2 kinase. Set-up: method as in Iverson et al., 2009. The conditions noted are these: ref Iverson et al., 2009; cited from earlier work.

Sequence of MEK1/MAP2K1(h) (Q02750 whole entry): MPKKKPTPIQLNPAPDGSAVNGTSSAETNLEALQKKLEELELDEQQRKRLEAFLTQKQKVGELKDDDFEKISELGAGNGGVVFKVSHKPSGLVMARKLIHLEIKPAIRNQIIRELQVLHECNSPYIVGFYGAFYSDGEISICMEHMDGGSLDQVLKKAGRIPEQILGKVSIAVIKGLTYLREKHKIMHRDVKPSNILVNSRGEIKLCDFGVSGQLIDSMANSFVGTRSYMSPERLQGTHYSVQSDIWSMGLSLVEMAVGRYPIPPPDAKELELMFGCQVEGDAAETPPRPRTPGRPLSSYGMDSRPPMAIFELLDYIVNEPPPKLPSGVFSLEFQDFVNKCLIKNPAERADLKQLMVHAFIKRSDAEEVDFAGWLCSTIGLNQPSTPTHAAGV
Method for A375 cells: (§1) Cell lines were inoculated at the density of 2×10^4 cells per well in a 6-well plate and cultured overnight. […] The cell cycle or apoptosis analysis was performed by flow cytometry.
(§2) Tumor cell lines were inoculated in 6-well plates at a density of 2×10^4 cells/well. […] Both apoptosis and cell cycle were measured by flow cytometry (Accuri C6, BD biosciences).
Method for A549: (§3) All cell lines were authenticated by short tandem repeat analysis and maintained following the ATCC instructions. […] Anti-proliferation activity was analyzed using the 3-(4,5-dimethylthiazole-2-yl)-2,5-diphenyl-2H-tetrazolium bromide (MTT) or (3-(4,5-dimethylthiazol-2-yl)-5-(3-carboxymethoxyphenyl)-2 -(4-sulfophenyl)-2H-tetrazolium) (MTS) assay.
(§4) Cells were seeded into 96-well plates at an appropriate density, and 24 h later, diluted drug in different concentrations was added to each test well in triplicate. The cell viability was tested 5 days (H358 was analyzed for 7 days) after the cells were plated according to the procedure originally described by Mosmann [1]. Survival rate was calculated using the formula: Survival rate = (Mean absorbance of experimental wells-Mean absorbance of DMSO wells) / (Mean absorbance of control wells-Mean absorbance of DMSO wells) × 100%. IC50 was determined from the regression of a plot of the logarithm of the concentration versus survival rate by GraphPad Prism 6 using the non-linear regression Dose–Response Inhibition (four parameters) Model.
Method for COLO 205 cells: as §1, §2
Method for Calu-6: as §3, §4
Method for Colo-829: as §3, §4
Method for H1975: as §3
(§5) A375, HT-29 and Calu-6 cell lines were purchased from the typical culture preservation commission cell bank of the Chinese Academy of Sciences in China. […] H358 cell line was obtained from EK-bioscience. Cells were seeded into 96-well plates at an appropriate density, and 24 h later, diluted drug in different concentrations was added to each test well in triplicate. The cell viability was tested 5 days (H358 was analyzed for 7 days) after the cells were plated according to the procedure originally described by Mosmann [1]. Survival rate was calculated using the formula: Survival rate = (Mean absorbance of experimental wells-Mean absorbance of DMSO wells) / (Mean absorbance of control wells-Mean absorbance of DMSO wells) × 100%. IC50 was determined from the regression of a plot of the logarithm of the concentration versus survival rate by GraphPad Prism 6 using the non-linear regression Dose–Response Inhibition (four parameters) Model.
Method for HL-60: as §3, §5
Method for HT-29: as §3, §4
Method for MEK1/MAP2K1(h): Kinase inhibition activity against MEK1 was conducted in Cerep (France) and Sundia (Shanghai, China).
The signals were measured using Caliper EZ Reader and the data were analyzed.
Method for MRC-5: as §3, §5

As for `Cn1cnc2c(F)c(Nc3ccc(Br)cc3Cl)c(C(=O)NOCCO)cc21` [AZD6244, selumetinib], the apoptosis-inducing effect entry with A375 cells is “no significant apoptosis-inducing effect”. The compound also returned an apoptosis rate in the series on COLO 205 cells (1 μM) of 40.6%. Further, the IC50 in the series on A375 was 67.52 ± 0.07 nM; in the series with COLO 205, 54.3 ± 2.21 nM; in the series with Colo-829 it was 301 ± 88.8 nM; with HT-29 it was 175 ± 19.3 nM; with Calu-6, 2310 ± 204 nM; in the series with A549, 5730 ± 1030 nM. The concentration for half-maximal inhibition (IC50) in the series with HL-60 is 35.3 ± 20.9 nM; with H1975 it was more than 50000 nM; with MRC-5 it was more than 50000 nM.

`O=C(c1ccc(F)c(F)c1Nc1ccc(I)cc1F)N1CC(O)([C@@H]2CCCCN2)C1` [Cobimetinib, cobimetinib]: in the series on hERG channel, the IC50 was 500 nM.

Turning to `CC(=O)Nc1cccc(-n2c(=O)n(C3CC3)c(=O)c3c(Nc4ccc(I)cc4F)n(C)c(=O)c(C)c32)c1` [GSK212, trametinib], the drug accumulation in [1] (ref Infante et al., 2012) is given as approximately 6 fold. Further, in [1] (repeat dose of 2 mg, ref Food and Drug Administration, 2013), the “mean accumulation ratio (day15/day1)” value is listed as approximately 6.0. In [2], the solubility property result is reported as “poor solubility”. In the series on A375 cells, the apoptosis-inducing effect entry is listed as “no significant apoptosis-inducing effect”. The apoptosis rate in the series on COLO 205 cells (20 nM) was found to be 47.0%. The half-maximal inhibitory concentration (IC50) worked out at 0.74 ± 0.01 nM in the series on A375; 0.74 ± 0.02 nM in the series with COLO 205; 1.78 nM with Colo-829; 1.45 ± 0.2 nM with HT-29; 10.56 ± 0.07 nM with Calu-6; 45.4 ± 4.76 nM with A549. The IC50 is 0.6 ± 0.28 nM in the series on HL-60, more than 1000 nM with H1975 and more than 1000 nM in the series on MRC-5.

`Cn1cnc2c(F)c(Nc3ccc(Br)cc3F)c(C(=O)NOCCO)cc21` [MEK162, binimetinib] registered an IC50 on MEK1/MAP2K1(h) of 224 ± 16.9 nM.

Consider `COc1cc(F)c(F)c(Nc2ccc(I)cc2F)c1NS(=O)(=O)C1(C[C@H](O)CO)CC1` [REDA119], for which the results for the IC50 on MEK1 kinase and on MEK2 kinase were 19 nM and 47 nM, respectively.
